Data published in patent US6512000B1, “Aminocarbonyl-substituted benzimidazoles having tryptase-inhibitory activity” (Boehringer Ingelheim Pharma KG, priority 1999, dated 2003).

Biological target: T1, rh beta tryptase (Homo sapiens, UniProt P20231)
T1 construct: purchased Promega
Experiment: Tryptase inhibition test (cleavage of N-p-tosyl-Gly-Pro-Lys-para-nitroaniline, p-nitroaniline measured at 405 nm)
Type: biochemical
Details: pH 7.4, 37° C.; for inhibition at 10 µM: inhibition of rh beta tryptase at 10 μM test substance, substrate N-p-tosyl-Gly-Pro-Lys-para-nitroaniline 0.6 mM, 5 minutes; for IC50: concentration at which 50% of the tryptase enzyme activity is inhibited, substrate 0.6 mM
Procedure, shortened: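 Screening at 10 μM gives percent inhibition, with IC50 derived for compounds above 70% inhibition. Enzyme: rh beta tryptase, 0.91 U/ml, pH 7.4 Tris HCl (100 mM), 5 mM Ca, 100 mg/ml heparin. After 5 min compound pre-incubation, 0.6 mM pNA substrate cleaved 5 min at 37 °C, monitored at 405 nm.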

T1 sequence (P20231 31-275): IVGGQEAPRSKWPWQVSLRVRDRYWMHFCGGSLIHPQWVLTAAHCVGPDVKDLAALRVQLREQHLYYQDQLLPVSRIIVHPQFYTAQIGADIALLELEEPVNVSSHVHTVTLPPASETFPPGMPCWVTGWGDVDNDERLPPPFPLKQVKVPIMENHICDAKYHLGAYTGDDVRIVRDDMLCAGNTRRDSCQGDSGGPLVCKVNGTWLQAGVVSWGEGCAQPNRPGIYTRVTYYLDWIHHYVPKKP

SMILES	inhibition at 10 µM	IC50
N=C(N)c1ccc(CCc2nc3cc(C(=O)N(Cc4ccc(CN)cc4)Cc4ccc5ccccc5c4)ccc3n2CCc2ccccc2)cc1 [Example 235, 2-[2-(4-amidinophenyl)ethyl]-1-(2-phenylethyl)-benzimidazol-5-yl-carboxylic acid-N-[4-(amino-methyl)-benzyl]-N-(2-naphthylmethyl)-amide]	52%	
Cc1ccc(Cn2c(CCc3ccc(C(=N)N)cc3)nc3cc(C(=O)N(Cc4ccc(CN)cc4)Cc4ccc5ccccc5c4)ccc32)cc1 [Example 237, 2-[2-(4-amidinophenyl)ethyl]-1-(4-methylbenzyl)-benzimidazol-5-yl-carboxylic acid-N-[4-(amino-methyl)-benzyl]-N-(2-naphthylmethyl)-amide]	52%	
N=C(N)c1ccc(CCc2nc3cc(C(=O)N(Cc4ccc(CN)cc4)Cc4ccc5ccccc5c4)ccc3n2CCCN2CCOCC2)cc1 [Example 241, 2-[2-(4-amidinophenyl)ethyl]-1-[3-(morpholin-4-yl)-propyl]-benzimidazol-5-yl-carboxylic acid-N-[4-(amino-methyl)-benzyl]-N-(2-naphthylmethyl)-amide]	69%	
N=C(N)c1ccc(CCc2nc3cc(C(=O)N(Cc4ccc(CN)cc4)Cc4ccc5ccccc5c4)ccc3n2CC2CCCO2)cc1 (centres unmarked) [Example 242, 2-[2-(4-amidinophenyl)ethyl]-1-(tetrahydrofuran-2-yl-methyl)-benzimidazol-5-yl-carboxylic acid-N-[4-(amino-methyl)-benzyl]-N-(2-naphthylmethyl)-amide]	63%	
CCOCCCn1c(CCc2ccc(C(=N)N)cc2)nc2cc(C(=O)N(CCN)Cc3cccc(OC)c3)ccc21 [Example 262, 2-[2-(4-amidinophenyl)ethyl]-1-(3-ethoxypropyl)-benzimidazol-5-yl-carboxylic acid-N-(2-aminoethyl)-N-(3-methoxybenzyl)-amide]	58%	284 nM
COc1cccc(CN(CCN)C(=O)c2ccc3c(c2)nc(CCc2ccc(C(=N)N)cc2)n3CC2CC2)c1 [Example 266, 2-[2-(4-amidinophenyl)ethyl]-1-cyclopropylmethyl-benzimidazol-5-yl-carboxylic acid-N-(2-aminoethyl)-N-(3-methoxybenzyl)-amide]	61%	641 nM
COc1cccc(CN(CCN)C(=O)c2ccc3c(c2)nc(CCc2ccc(C(=N)N)cc2)n3CC2CCCO2)c1 (centres unmarked) [Example 274, 2-[2-(4-amidinophenyl)ethyl]-1-(tetrahydrofuran-2-yl-methyl)-benzimidazol-5-yl-carboxylic acid-N-(2-aminoethyl)-N-(3-methoxybenzyl)-amide]	57%	
CCCCN(CCN)C(=O)c1ccc2c(c1)nc(CCc1ccc(C(=N)N)cc1)n2CCCOCC [Example 278, 2-[2-(4-amidinophenyl)ethyl]-1-(3-ethoxypropyl)-benzimidazol-5-yl-carboxylic acid-N-(2-aminoethyl)-N n-butyl-amide]	83%	251 nM
CCCCN(CCCC)CCCn1c(CCc2ccc(C(=N)N)cc2)nc2cc(C(=O)N(CCN)CCCC)ccc21 [Example 279, 2-[2-(4-amidinophenyl)ethyl]-1-(3-di-n-butylaminopropyl)-benzimidazol-5-yl-carboxylic acid-N-(2-aminoethyl)-N-n-butyl-amide]	60%	
CCCCN(CCN)C(=O)c1ccc2c(c1)nc(CCc1ccc(C(=N)N)cc1)n2CCCNC(=O)Cc1ccccc1 [Example 280, 2-[2-(4-amidinophenyl)ethyl]-1-[3-(benzylcarbonylamino)-propyl]-benzimidazol-5-yl-carboxylic acid-N-(2-aminoethyl)-N-n-butyl-amide]	59%	
CCCCN(CCN)C(=O)c1ccc2c(c1)nc(CCc1ccc(C(=N)N)cc1)n2CC1CC1 [Example 282, 2-[2-(4-amidinophenyl)ethyl]-1-cyclopropylmethyl-benzimidazol-5-yl-carboxylic acid-N-(2-aminoethyl)-N-n-butyl-amide]	65%	
